Here are results for six compounds from patent publication US20240381872A1, “SUBSTITUTED 2,3-DIHYDRO[1,3]THIAZOLO[4,5-B]PYRIDINES, SALTS THEREOF AND THEIR USE AS HERBICIDALLY ACTIVE SUBSTANCES” (BAYER AKTIENGESELLSCHAFT, priority 2021, published 2024).

What all share (type): in vivo
In test [1] the test system is Matricaria inodora (MATIN). Description: Herbicidal pre-emergence action, section A (Table A6). To be noted: visual grading after ca. 3 weeks vs untreated controls. An outline of the steps:
(§1)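 Pre-emergence soil-surface application: WP or EC formulations in water plus 0.5% additive, sprayed at 600 l/ha onto soil covering seeds sown in sandy loam. Visual percent damage rated at about 3 weeks against untreated pots, 100% meaning plants died off and 0% meaning like controls.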

In test [2] the test system is Setaria viridis (SETVI). Kind of test: Herbicidal pre-emergence action, section A (Table A8). To be noted: application rate 320 g/ha; for pest or weed control at 320 g/ha: Setaria viridis, 504 h, read-out: pre-emergence activity against SETVI in %. The method in brief: as §1
Test [3] relates to Stellaria media (STEME). Kind of test: Herbicidal pre-emergence action, section A (Table A9). An outline of the steps:
as §1

Test [4] has as its system Stellaria media (STEME). Description: Herbicidal post-emergence action, section B (Table B9). To be noted: visual rating about 3 weeks after treatment vs untreated controls. The method in brief:
(§2)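 Weeds were sown in sandy loam and grown in a greenhouse, then sprayed at the one-leaf stage 2 to 3 weeks after sowing. Compounds, formulated as WP or EC, went on as aqueous suspension or emulsion with 0.5% additive at 600 liters per hectare. Visual rating after about 3 weeks against untreated controls (100% = plants dead, 0% = like controls).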

The subject of test [5] is Veronica persica (VERPE). Kind of test: Herbicidal post-emergence action, section B (Table B10). To be noted: visual rating about 3 weeks after treatment vs untreated controls. The method in brief: as §2
Test [6] deals with Abutilon theophrasti (ABUTH). Kind of test: Herbicidal post-emergence action, section E (Table E1). To be noted: assessed visually after ca. 3 weeks; for pest or weed control at 320 g/ha: Abutilon theophrasti, post-emergence, 504 h, read-out: post-emergence activity against ABUTH in %. From the text: (§3) Seeds of mono- and dicotyledonous weed plants and crop plants were sown, in plastic or organic planting pots, in sandy loam, covered with soil and grown in a greenhouse under controlled growth conditions. 2 to 3 weeks after sowing, the test plants were sprayed in the single-leaf stage. The compounds according to the invention, formulated in form of wettable powders (WP) or as emulsifiable concentrates (EC), were sprayed onto the green plant parts as aqueous suspension or emulsion, with the addition of 0.5% of an additive, at an application rate of 600 l of water/ha (converted). The test plants were placed in the greenhouse for ca. 3 weeks under optimum growth conditions, and then the effect of the preparations was assessed visually in comparison with untreated controls (herbicidal effect in percent (%): 100% effect=plants have died off, 0% effect=as control plants).

Test [7] concerns Alopecurus myosuroides (ALOMY). Description: Herbicidal post-emergence action, section E (Table E2). Conditions: application rate 320 g/ha, assessed visually after ca. 3 weeks; for pest or weed control at 320 g/ha: Alopecurus myosuroides, post-emergence, 504 h, read-out: post-emergence activity against ALOMY in %.
Description: as §3

Test [8] relates to Amaranthus retroflexus (AMARE). Kind of test: Herbicidal post-emergence action, section E (Table E3). Conditions: Amaranthus retroflexus, post-emergence, 504 h, assessed visually after ca. 3 weeks, read-out: post-emergence activity against AMARE in %; for pest or weed control at 320 g/ha: application rate 320 g/ha.
Description: as §3

Test [9] concerns Polygonum convolvulus (POLCO). Kind of test: Herbicidal post-emergence action, section E (Table E7). To be noted: visual assessment ca. 3 weeks after spraying. An outline of the steps:
(§4)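 Greenhouse-grown plants in sandy loam were sprayed post-emergence at the single-leaf stage, 2 to 3 weeks after sowing. Compounds were applied as WP or EC in water with 0.5% additive at 600 l water/ha. After ca. 3 weeks, damage was scored visually versus untreated controls (0% = as control, 100% = dead).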

For test [10], the system named is Veronica persica (VERPE). Kind of test: Herbicidal post-emergence action, section E (Table E9). To be noted: visual assessment ca. 3 weeks after spraying. An outline of the steps: as §4
Test [11] has as its system Zea mays (ZEAMX). Kind of test: Post-emergence effects on crop plants, section F (Table F1). To be noted: for post-emergence activity against ZEAMX in %: crop plant damage. The method in brief: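 Crops grown in sandy loam in the greenhouse were sprayed post-emergence at the single-leaf stage, 2-3 weeks after sowing. Compounds were formulated as WP or EC with 0.5% additive and applied in 600 l water/ha at 320 g/ha or below. Damage was scored visually about 3 weeks later as % effect versus untreated controls (100% = dead).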

Test [12] has as its system Digitaria sanguinalis (DIGSA). Kind of test: Herbicidal pre-emergence action, section A (Table A12). An outline of the steps: as §1
In test [13] the test system is Abutilon theophrasti (ABUTH). Description: Herbicidal post-emergence action, section B (Table B1). Conditions: rated visually after about 3 weeks; for pest or weed control at 1280 g/ha: Abutilon theophrasti, 504 h, read-out: post-emergence activity against ABUTH in %. An outline of the steps: as §2
Test [14] deals with Lolium rigidum (LOLRI). Description: Herbicidal post-emergence action, section B (Table B5). Conditions: visual rating about 3 weeks after treatment vs untreated controls. The method in brief: as §2
Setting [15] is: Tripleurospermum inodorum, pre-emergence, 504 h, application rate 1280 g/ha, read-out: pre-emergence activity against MATIN in %.
[16] abbreviates: Stellaria media, post-emergence, 504 h, application rate 1280 g/ha, read-out: post-emergence activity against STEME in %.
[17] abbreviates: Zea mays, 504 h, application rate 80 g/ha, read-out: post-emergence activity against ZEAMX in %.
Where [18] appears, read: Stellaria media, 504 h, application rate 320 g/ha, read-out: pre-emergence activity against STEME in %.

On to `Cc1cc2c(nc1-c1ccccc1F)NCS2` [Example I-007, 5-(2-fluorophenyl)-6-methyl-2,3-dihydro[1,3]thiazolo[4,5-b]pyridine], for which the pest or weed control at 1280 g/ha in test [1] (setting [15]) is 90%; in test [3] (Stellaria media, 504 h, application rate 1280 g/ha, read-out: pre-emergence activity against STEME in %), 90%; in test [4] (setting [16]), 90%. Also, the pest or weed control at 320 g/ha in [2] was found to be 100%; in test [5] (Veronica persica, post-emergence, 504 h, application rate 320 g/ha, read-out: post-emergence activity against VERPE in %) it was 90%; in [6] (application rate 320 g/ha), 80%; in test [7], 90%. Also, the pest or weed control at 80 g/ha in test [8] (application rate 80 g/ha) was found to be 80%; in [9] (Fallopia convolvulus, 504 h, application rate 80 g/ha, read-out: post-emergence activity against POLCO in %) it was 90%; in [10] (Veronica persica, 504 h, application rate 80 g/ha, read-out: post-emergence activity against VERPE in %) it was 80%. For the same compound, the percent crop plant damage (phytotoxicity) on Zea mays, post-emergence at 80 g/ha in [11] (setting [17]) worked out at 0%.

On to `Cc1cc2c(nc1-c1ccccc1F)N(S(=O)(=O)Cc1ccc(F)cc1)CS2` [Example I-122], for which, in [1] (application rate 320 g/ha), the “pre-emergence activity against MATIN in %” value is 90%. The “pre-emergence activity against SETVI in %” value in test [2] came out at 100%. In test [3] (application rate 320 g/ha), the “pre-emergence activity against STEME in %” value came out at 90%. For the same compound, the “pre-emergence activity against DIGSA in %” value in [12] (application rate 320 g/ha) came out at 100%. Also, the “post-emergence activity against ABUTH in %” value in [13] (application rate 1280 g/ha) is 90%; in test [6] (application rate 320 g/ha), 80%. The “post-emergence activity against LOLRI in %” value in [14] (application rate 1280 g/ha) was determined as 90%. For the same compound, the “post-emergence activity against STEME in %” value in test [4] (application rate 1280 g/ha) was found to be 90%. Also, the “post-emergence activity against VERPE in %” value in test [5] (application rate 320 g/ha) and in test [10] (application rate 320 g/ha) was 90% throughout. Further, in test [7], the “post-emergence activity against ALOMY in %” value is recorded as 90%. The “post-emergence activity against POLCO in %” value in [9] (application rate 320 g/ha) worked out at 90%. Further, the “post-emergence activity against ZEAMX in %” value in test [11] (application rate 320 g/ha) is given as 0%.

Regarding `Cc1cc2c(nc1-c1ccccc1F)N(C(=O)C13CCCC1C(Cl)=NO3)CS2` (centres unmarked) [Example I-104], the “pre-emergence activity against MATIN in %” value in test [1] (application rate 320 g/ha) is 100%. In [2], the “pre-emergence activity against SETVI in %” value is 100%. Further, in test [3] (application rate 320 g/ha), the “pre-emergence activity against STEME in %” value came out at 90%. For the same compound, the “pre-emergence activity against DIGSA in %” value in test [12] (application rate 320 g/ha) is given as 100%. For the same compound, the “post-emergence activity against ABUTH in %” value turned out to be 90% in test [13] (application rate 320 g/ha) and 80% in test [6] (application rate 80 g/ha). Also, in test [14] (application rate 320 g/ha), the “post-emergence activity against LOLRI in %” value amounted to 90%. Besides, the “post-emergence activity against STEME in %” value in [4] (application rate 320 g/ha) was 90%. Besides, the “post-emergence activity against VERPE in %” value in test [5] (application rate 320 g/ha) came out at 90%; in [10] (application rate 80 g/ha), 80%. In addition, the “post-emergence activity against ALOMY in %” value in test [7] worked out at 80%. The “post-emergence activity against POLCO in %” value in test [9] (application rate 320 g/ha) turned out to be 90%. In addition, the “post-emergence activity against ZEAMX in %” value in test [11] (application rate 80 g/ha) was 20%.

For `Cc1cc2c(nc1-c1cccc(F)c1F)NCS2` [Example I-029, 5-(2,3-difluorophenyl)-6-methyl-2,3-dihydro[1,3]thiazolo[4,5-b]pyridine], the pest or weed control at 320 g/ha worked out at 90% in test [1] (Tripleurospermum inodorum, pre-emergence, 504 h, application rate 320 g/ha, read-out: pre-emergence activity against MATIN in %); 100% in test [2]; 90% in test [3] (setting [18]); 100% in test [12] (Digitaria sanguinalis, 504 h, application rate 320 g/ha, read-out: pre-emergence activity against DIGSA in %); 90% in test [4] (Stellaria media, post-emergence, 504 h, application rate 320 g/ha, read-out: post-emergence activity against STEME in %); 80% in test [7]. Further, the pest or weed control at 320 g/ha in test [8] turned out to be 80%; in test [9] (Fallopia convolvulus, 504 h, application rate 320 g/ha, read-out: post-emergence activity against POLCO in %) it was 90%. Also, the pest or weed control at 1280 g/ha in [13] (application rate 1280 g/ha) worked out at 90%; in test [14] (Lolium rigidum, post-emergence, 504 h, application rate 1280 g/ha, read-out: post-emergence activity against LOLRI in %), 90%; in test [5] (Veronica persica, post-emergence, 504 h, application rate 1280 g/ha, read-out: post-emergence activity against VERPE in %) it was 90%. Moreover, the percent crop plant damage (phytotoxicity) on Zea mays, post-emergence at 80 g/ha in test [11] (setting [17]) was 0%.

Take `Cc1cc2c(nc1-c1ccccc1)N(C(=O)C1(C)CC(Cl)=NO1)CS2` (centres unmarked) [Example I-088]: the “pre-emergence activity against MATIN in %” value in [1] (application rate 1280 g/ha) worked out at 90%. The “pre-emergence activity against SETVI in %” value in [2] is reported as 100%. Besides, the “pre-emergence activity against STEME in %” value in [3] (application rate 1280 g/ha) was 90%. The “pre-emergence activity against DIGSA in %” value in [12] (application rate 320 g/ha) was determined as 100%. The “post-emergence activity against ABUTH in %” value in [13] (application rate 320 g/ha) and in [6] (application rate 320 g/ha) was 90% each time. For the same compound, the “post-emergence activity against LOLRI in %” value in [14] (application rate 1280 g/ha) is listed as 90%. Further, in test [4] (application rate 320 g/ha), the “post-emergence activity against STEME in %” value is 90%. Moreover, the results for the “post-emergence activity against VERPE in %” value in test [5] (application rate 1280 g/ha) and in [10] (application rate 320 g/ha) were 90% and 80%, respectively. Besides, in [9] (application rate 320 g/ha), the “post-emergence activity against POLCO in %” value is on record as 90%. For the same compound, in test [11] (application rate 320 g/ha), the “post-emergence activity against ZEAMX in %” value came out at 0%.

For the compound `CC1(C(=O)N2CSc3cc(Br)c(-c4ccccc4Cl)nc32)CC(Cl)=NO1` (centres unmarked) [Example I-141, [6-bromo-5-(2-chlorophenyl)[1,3]thiazolo[4,5-b]pyridin-3(2H)-yl](3-chloro-5-methyl-4,5-dihydro-1,2-oxazol-5-yl)methanone], the pest or weed control at 1280 g/ha came to 90% in test [1] (setting [15]); 100% in test [12] (Digitaria sanguinalis, 504 h, application rate 1280 g/ha, read-out: pre-emergence activity against DIGSA in %); 90% in test [13] (application rate 1280 g/ha); 90% in [4] (setting [16]). Further, the pest or weed control at 320 g/ha in test [2] amounted to 100%; in test [3] (setting [18]) it was 90%; in [6] (application rate 320 g/ha), 80%; in test [8] it was 80%; in [10] (Veronica persica, 504 h, application rate 320 g/ha, read-out: post-emergence activity against VERPE in %), 80%. Also, the percent crop plant damage (phytotoxicity) on Zea mays, post-emergence at 320 g/ha in [11] (Zea mays, 504 h, application rate 320 g/ha, read-out: post-emergence activity against ZEAMX in %) was found to be 0%.
